Measured values from patent US6521659B2, “Compositions containing a substituted indolealkanoic acid and an angiotensin converting enzyme inhibitor” (Institute for Pharmaceutical Discovery, LLC, priority 2000, dated 2003).
Where two headings read alike, the source gives them in different places.

Assays:
diabetic (db/db) mice = assay: Blood glucose lowering in diabetic (db/db) mice; format: in vivo, mouse; settings: for Blood glucose: n = 12
Protocol: The mice are obese, extremely hyperglycemic and also hyperinsulinemic.
Male db/db mice (8 weeks old) were obtained from Jackson Laboratories and were allowed to acclimate for 1 week before the experiment commenced. A sample of blood was collected from the tail after which plasma glucose was isolated by centrifigation and the glucose concentration was measured in the plasma enzymatically on the COBAS automated clinical analyzer equipped with a glucose kit that utilized hexokinas to quantitate the amount of glucose in a sample (Roche Diagnostic Systems, kit #47382). Mice with the lowest plasma glucose values were removed from the study and the remaining mice were randomized according to their individual plasma glucose values into 3 treatment groups (n=12 per group), control untreated db/db mice, 100 mg/kg/d compound treated db/db mice and 300 mg/kg/d compound treated db/db mice.
Treatment with the compound was carried out for 4 weeks during which time blood glucose levels were measured weekly from the tail using the One Touch II blood glucose meter (Lifescan, Inc). The blood glucose values of mice in the compound treated groups was compared to the blood glucose values of mice from the control untreated group by an analysis of variance followed by Dunett's Comparison Test (one-tailed).

[1] = test system: streptozotocin-induced diabetic rats; assay: Serum/plasma triglyceride levels in streptozotocin-induced diabetic rats; format: in vivo, rat; settings: 10 mg/kg/day
Protocol: Tests are conducted to determine the effect of compounds on serum triglyceride levels in streptozotocin-induced diabetic rats.
Control animals receive citrate buffer.
Two hours after STZ injection, food is returned.
The nondiabetic and diabetic control groups are administered vehicle.

rat aortic ring = assay: Rat aortic ring assay (anti-angiogenic activity); format: cell-based
Protocol: Final concentration of DMSO in all wells is 1%.
Statistical analysis conducted with Kruskal-Wallis Test and Dunns multiple comparisons

[2] = test system: STZ treated diabetic minipigs; assay: Wound healing in STZ treated diabetic minipigs; format: in vivo, minipig; settings: STZ diabetic minipigs with wounds, compared with untreated control STZ diabetic minipigs
Protocol: STZ treated diabetic minipigs having various wounds are administered the compound of Example 3. These animals are compared with control STZ diabetic minipigs also having wounds but that are not treated with the compound. […] Accordingly, the compounds of the invention are capable of promoting wound healing in diabetic mammals.

Structure (SMILES): O=C(O)Cn1cc(Cc2nc3c(F)c(F)cc(F)c3s2)c2ccccc21 [Example 3, 3-(4,5,7-Trifluorobenzothiazol-2-yl)methyl-indole-N-acetic Acid]
- Blood glucose (diabetic (db/db) mice; 100 mg/kg/d in diet, Week 0, mean ± SD): 323 ± 79 mg/dL
- Blood glucose (diabetic (db/db) mice; 100 mg/kg/d in diet, Week 2, mean ± SD): 284 ± 75 mg/dL
- Blood glucose (diabetic (db/db) mice; 100 mg/kg/d in diet, Week 3, mean ± SD): 258 ± 60 mg/dL
- Blood glucose (diabetic (db/db) mice; 100 mg/kg/d in diet, Week 4, mean ± SD): 303 ± 79 mg/dL
- mean percent change in glucose with drug treatment (lowering) (diabetic (db/db) mice; 100 mg/kg/d, after four weeks): 12%
- Blood glucose (diabetic (db/db) mice; 300 mg/kg/d in diet, Week 0, mean ± SD): 313 ± 52 mg/dL
- Blood glucose (diabetic (db/db) mice; 300 mg/kg/d in diet, Week 2, mean ± SD): 240 ± 85 mg/dL
- Blood glucose (diabetic (db/db) mice; 300 mg/kg/d in diet, Week 3, mean ± SD): 197 ± 77 mg/dL
- Blood glucose (diabetic (db/db) mice; 300 mg/kg/d in diet, Week 4, mean ± SD): 207 ± 77 mg/dL
- mean percent change in glucose with drug treatment (lowering of blood glucose) (diabetic (db/db) mice; 300 mg/kg/d, after four weeks): 40%
- Triglyceride lowering compared to diabetic ([1]; STZ diabetic rats, 10 mg/kg/d by gavage): 68%
- Plasma triglycerides ([1]; po, 4 h): 149 ± 29 mg/dL
- Linear Microvascular Growth (rat aortic ring): 1.97 ± 0.66, n = 5 mm
- Linear Microvascular Growth (rat aortic ring; 50 µM): 2.31 ± 0.71, n = 5 mm
- Linear Microvascular Growth (rat aortic ring; Prevention (Days 1-6), 50 micromolar, mean ± SD, n = 6): 1.46 ± 0.48, n = 6 mm
- degree of wound healing [2]: significant increase in the degree of wound healing
